Experimental findings from US20130231360A1, “Beta-Carbolines as Inhibitors of Haspin and DYRK Kinases” (THE BRIGHAM AND WOMEN S HOSPITAL, INC., priority 2010, published 2013) are described below.

Bounds are passed on as bounds.

One assay addresses T1, Haspin kinase (Homo sapiens, UniProt Q8TF76).
T1 construct: This full-length Haspin gene was cloned into the pMALc2E vector; made in house; host or cells: E. coli Rosetta 2(DE3)pLysS
T1 sequence (Q8TF76 1-798): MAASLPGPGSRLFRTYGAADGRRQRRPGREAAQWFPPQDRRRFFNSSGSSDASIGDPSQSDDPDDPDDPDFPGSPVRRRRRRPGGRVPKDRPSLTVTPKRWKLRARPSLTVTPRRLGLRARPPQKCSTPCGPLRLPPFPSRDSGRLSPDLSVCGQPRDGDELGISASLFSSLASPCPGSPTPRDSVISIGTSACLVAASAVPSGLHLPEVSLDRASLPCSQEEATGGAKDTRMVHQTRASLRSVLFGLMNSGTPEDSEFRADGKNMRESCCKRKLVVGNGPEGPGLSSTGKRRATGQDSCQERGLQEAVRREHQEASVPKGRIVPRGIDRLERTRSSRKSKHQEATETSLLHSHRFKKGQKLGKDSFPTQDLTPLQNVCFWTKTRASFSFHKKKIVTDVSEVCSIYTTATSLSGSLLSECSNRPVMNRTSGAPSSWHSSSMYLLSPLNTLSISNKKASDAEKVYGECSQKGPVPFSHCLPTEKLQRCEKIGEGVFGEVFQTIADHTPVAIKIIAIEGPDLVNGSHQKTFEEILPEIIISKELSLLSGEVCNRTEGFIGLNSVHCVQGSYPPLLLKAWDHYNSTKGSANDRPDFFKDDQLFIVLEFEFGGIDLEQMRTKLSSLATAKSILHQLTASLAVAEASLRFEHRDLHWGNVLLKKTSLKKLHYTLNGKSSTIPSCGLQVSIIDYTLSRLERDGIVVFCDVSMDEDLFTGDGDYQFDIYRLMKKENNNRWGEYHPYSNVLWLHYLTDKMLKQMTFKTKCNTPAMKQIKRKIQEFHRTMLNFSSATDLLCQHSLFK
In words: TR-FRET Haspin assay. It is filed as biochemical.
Conditions: not given
From the text: A synthetic codon-optimized human Haspin cDNA was made in vector pUC57 at GenScript Corporation (Piscataway, N.J.) to facilitate bacterial expression. This full-length Haspin gene was cloned into the pMALc2E vector (New England Biolabs, Ipswich, Mass.) using EcoR I and Sal I sites. Haspin was expressed and purified as an N-terminal MBP fusion protein from E. coli Rosetta™2(DE3)pLysS cells (Novagen, Madison, Wis.). A freshly transformed colony was used to initiate a small volume liquid culture in LB medium with 2 g/l glucose, 34 μg/ml chloramphenicol and 100 μg/ml ampicillin. This culture was used to inoculate a large volume of the same medium and grown until an absorbance at 600 nm of 0.5 was reached. Protein expression was induced by adding 0.3 mM isopropyl thiogalactoside and growth with shaking at room temperature for 14 hours. Affinity column chromatography was carried out using amylose resin following the manufacturer's instructions (New England Biolabs). The fusion protein was eluted in 50 mM Tris, pH 7.5, 200 mM NaCl, 10 mM maltose and dialyzed into 50 mM Tris, pH 7.5, 200 mM NaCl, 2 mM DTT and 50% glycerol. The purity and yield of intact fusion protein was determined by SDS-PAGE and Coomassie Blue staining, in comparison with known quantities of bovine serum albumin.
This peptide carried biotin on the side chain of the C-terminal lysine. Recombinant full-length human histone H3 was from New England Biolabs. ATP and Staurosporine were purchased from Sigma-Aldrich (St Louis, Mo.). Rabbit monoclonal anti-Histone H3T3ph antibody (clone JY325) from Millipore (Billerica, Mass.) was directly labeled by PerkinElmer (Waltham, Mass.) with LANCE Eu W1024. For indirect detection, LANCE Eu W1024 labeled anti-rabbit IgG antibody was used (PerkinElmer). Streptavidin conjugated to SureLight-Allophycocyanin (PerkinElmer) was used as the acceptor fluorophore.
A CRS CataLyst Express robotic arm (Thermo Fisher Scientific, Waltham, Mass.) and a Cybi-well 384 channel simultaneous pipettor (CyBio AG, Jena, Germany) were used to carry out the high throughput screening of a small molecule library. Kinase reactions were performed in 50 mM Tris, pH 7.5, 5 mM MgCl2, 1 mM DTT, 0.01% Brij-35 using Proxiplate 384 Plus white assay plates (PerkinElmer). […] The reaction was incubated for 10 minutes at room temperature. The reaction was terminated by addition of […] 50 mM EDTA, 2 nM Europium labeled anti-Histone H3T3ph antibody, 40 nM Streptavidin-APC. After a two hour incubation at room temperature, TR-FRET measurements were performed using a PHERAstar HTS microplate reader (BMG Labtech, Offenberg, Germany), and were expressed as ratios of acceptor fluorescence at 665 nm over donor fluorescence at 620 nm.
Data were analyzed using GraphPad Prism Version 4 (GraphPad Software Inc, La Jolla, Calif.). No inhibitor (“MAX”) and Staurosporine inhibitor (“MIN”) controls were used to calculate Z′ values and signal to background ratios during the high throughput screen. […] Km concentrations were also determined by non-linear regression.
To identify Haspin inhibitors by high throughput screening a homogeneous kinase assay based on time-resolved fluorescence resonance energy transfer (TR-FRET) was designed (Patnaik D., et al. J Biomol. Screen 13: 1025-1034, […].). This TR-FRET assay was utilized to screen a small molecule library of approximately 140,000 compounds. Primary hits were re-tested by TR-FRET assay using the peptide substrate and then revalidated by assaying the compounds in a radiometric assay using full-length Histone H3 as a protein substrate.
IC50 values were determined for inhibition of Haspin kinase utilizing the TR-FRET assay described in Example 3.
Background: TR-FRET usually uses a lanthanide donor and a delayed reading to cut background.
For `COc1ccc2c(c1)[nH]c1c(C)nccc12` [LDN-97388, harmine, reference compound], the 50% inhibitory concentration (IC50) is under 1 µM.

The assay is the same for the next values; noted with them: high throughput screen by TR-FRET; hits revalidated in radiometric assay and confirmed in cellular assay.
Take `COc1ccc2c(c1)[nH]c1c(/C=C/c3ccccc3)nccc12` [LDN-57292]: the “Haspin kinase inhibitory activity (in words)” value is “identified as a Haspin kinase inhibitors”. Still for that read-out and setting: with `COc1ccc2c(c1)[nH]c1c(C)nccc12` [LDN-97388, harmine, reference compound] the entry was “identified as a Haspin kinase inhibitors”; with harmol [LDN-21813, reference compound], “identified as a Haspin kinase inhibitors”.

The same assay, now with this note: inhibition of Haspin kinase, TR-FRET assay of Example 3; MBP-Haspin, H3(1-21)-biotin peptide 0.1 μM, ATP 200 μM; read-out: IC50.
As to `Cc1nccc2c1[nH]c1cc(OCCCN)ccc12` [LDN-209931], the IC50 is under 1 µM. Same read-out and setting: the result for `Cc1nccc2c1[nH]c1cc(OCCCCN)ccc12` [LDN-209932] reads under 2 µM; that for `COc1ccc2c3ccnc(C)c3n(CCCCN)c2c1` [LDN-209953], under 0.2 µM. Still for that read-out and setting: with `COc1ccc2c3ccncc3n(CCCCN)c2c1` [LDN-209983] the figure was under 0.35 µM. On the same count and under the same terms, the result for `CCc1nccc2c3ccc(OC)cc3n(CCCCN)c12` [LDN-209984] reads under 0.2 µM; that for `COc1ccc2c3ccnc(C(C)C)c3n(CCCCN)c2c1` [LDN-209985], under 0.6 µM. Regarding `Cc1nccc2c3ccc(O)cc3n(CCCCN)c12` [LDN-209986], the IC50 is under 0.2 µM.

For `Cc1nccc2c3ccc(F)cc3n(CCCCN)c12` [LDN-209987], the IC50 was under 0.6 µM. For the compound `COc1cccc2c3ccnc(C)c3n(CCCCN)c12` [LDN-211893], the IC50 is under 0.3 µM. The same measure, in the same setting: the result for `COc1ccc2c(c1)c1ccnc(C)c1n2CCCCN` [LDN-211894] reads under 3 µM; that for `COc1cccc2c1c1ccnc(C)c1n2CCCCN` [LDN-211895], under 3.5 µM; that for `Cc1nccc2c3cc4c(cc3n(CCCCN)c12)OCO4` [LDN-211896], under 0.7 µM. Still for that read-out and setting: with `COc1ccc2c3ccnc(C)c3n(CCCCN)c2c1Cl` [LDN-211897] the figure was under 1.2 µM. Same read-out and setting: with `COc1ccc2c3ccnc(C(F)(F)F)c3n(CCCCN)c2c1` [LDN-211898] the figure was under 0.15 µM; with `Cc1nccc2c3ccc(NS(C)(=O)=O)cc3n(CCCCN)c12` [LDN-211899], under 1 µM. `CNCCCCn1c2cc(OC)ccc2c2ccnc(C)c21` [LDN-211900]: the IC50 is under 0.4 µM. With `COc1ccc2c3ccnc(C)c3n(CCCCN)c2c1` [LDN-211901], the 50% inhibitory concentration (IC50) was under 0.5 µM. On the same count and under the same terms, with `NCCCCn1c2cc(O)ccc2c2ccnc(C(F)(F)F)c21` [LDN-211998] the figure was under 0.3 µM; with harmol [LDN-21813, reference compound], under 1.5 µM.

The assay is the same for the next values; noted with them: read-out: IC50.
In the case of `c1ccc2c(c1)[nH]c1cnccc12` [LDN-14063], the concentration for half-maximal inhibition (IC50) was over 10 µM. For `COc1ccc2c(c1)[nH]c1c(/C=C/c3ccccc3)nccc12` [LDN-57292], the IC50 is under 2 µM.

Turning to `COc1ccc2c(c1)[nH]c1ncccc12` [LDN-209919], the IC50 was over 100 µM. Regarding `Cc1nccc2c1[nH]c1cc(OCCCCNC(=O)OC(C)(C)C)ccc12` [LDN-209920], the IC50 is over 10 µM. On to `Cc1nccc2c1[nH]c1cc(OCCCNC(=O)OC(C)(C)C)ccc12` [LDN-209921], for which the IC50 was over 10 µM. On to `COc1ccc2c(c1)[nH]c1ccccc12` [LDN-209934], for which the IC50 is over 1 µM.

Consider `COc1ccc2c(c1)[nH]c1c(-c3ccccc3)nccc12` [LDN-209952], for which the IC50 is over 5 µM. Same read-out and setting: the result for `COc1ccc2c3ccnc(C)c3n(CCCC(N)c3ccccc3)c2c1` (centres unmarked) [LDN-211902] reads under 0.2 µM; that for `Cc1nccc2c3ccc(OC(C)(C)C)cc3n(CCCCN)c12` [LDN-211903], under 5 µM.

A word on the IC50: it is the point on the concentration scale where inhibition reaches its midpoint.
